The results in this text go back to patent US7435754B2, “Laulimalide microtubule stabilizing agents” (Utah State University, priority 2000, dated 2008).

Molecules are shown by their SMILES. Like-named read-outs stand apart in the source and are kept apart here. Where only a bound is given, the exact number is not on record here.

Test [1] deals with SK-OV-3 human ovarian carcinoma cell line. Kind of test: Inhibition of cell proliferation, SRB assay, SK-OV-3. The format is cell-based. Particulars: read-out: IC50 for inhibition of cell proliferation. Here is the method: (§1) The A-10 rat aortic smooth muscle and SK-OV-3 human ovarian carcinoma cell lines were obtained from the American Type Culture Collection (Manassas, Va.) and were cultured in BME containing 10% FBS and 50 μg/mL gentamycin sulfate. A sub-line of SK-OV-3 selected for resistance to vinblastine (SKVLB-1) was provided by Dr. Victor Ling (British Columbia Cancer Center, Vancouver, British Columbia) and was maintained in BME containing 10% FBS and 50 μg/mL gentamycin sulfate. The MDA-MB-435 human mammary adenocarcinoma cell line was obtained from Dr. Mai Higazi (Georgetown University, Washington, D.C.), and was maintained in Richters medium containing 10% FBS and 50 μg/mL gentamycin sulfate. Vinblastine was added to a final concentration of 1 μg/mL to SKVLB-1 cells 24 hours after passage to maintain selection pressure for P-glycoprotein-overexpressing cells.
(§2) The IC50 for inhibition of cell proliferation was determined by measuring cell-associated protein after drug treatment using the sulforhodamine B assay.
(§3) The early literature on laulimalide reported that it was a cytotoxin, but without specifying a mechanism. Experiments were conducted to determine the IC50 values for laulimalide and isolaulimalide in two drug-sensitive cell lines, MDA-MB-435 and SK-OV-3, and in a multidrug-resistant cell line, SKVLB-1. Cells were treated with varying concentrations of the drugs for 48 hours, and cell-associated protein was determined using the SRB assay. The IC50 for each compound was calculated for each cell line.
In general terms: In SRB staining, fixed cells bind dye roughly in proportion to their protein.

Test [2] has as its system A-10 cells. Kind of test: Immunofluorescence of cellular microtubules and mitotic spindles. The format is cell-based, rat. Particulars: for sensitivity of stabilized cellular microtubules to vinblastine / morphological effects on cellular microtubules: A-10 cells; for effect on mitotic spindles: A-10 cells and SK-OV-3 cells; for morphological effects on cellular microtubules: 18 hours, laulimalide 2 μM, isolaulimalide 2-20 μM, paclitaxel 1-20 μM. Here is the method: A-10 cells were grown to 70-85% confluence on glass coverslips in BME supplemented with 10% FBS. Drug compounds in PBS were added to the indicated final concentrations and cells were incubated for an additional […].
(§4) For the staining of microtubules and intermediate filaments, the cells were fixed with cold methanol for 5 minutes, blocked for 20 minutes with PBS containing 10% calf serum to block nonspecific binding sites, and incubated at 37° C. for 90 min with monoclonal anti-β-tubulin at the dilutions recommended by the manufacturer. Bound primary antibodies were subsequently visualized by a one hour incubation with fluorescein(FITC)-conjugated sheep antimouse IgG (F-3008; Sigma). The coverslips were washed, stained with 0.1 μg/mL DAPI for 10 minutes, mounted on microscope slides and the fluorescence patterns were examined and photographed using a Zeiss Axioplan microscope equipped with epifluorescence optics for fluorescein and DAPI.
A-10 cells were treated with laulimalide, isolaulimalide, or paclitaxel for 18 hours and the morphological effects on microtubules examined by indirect immunofluorescence techniques.

Test [3] concerns A-10 rat aortic smooth muscle cell line. Kind of test: Inhibition of cell proliferation, A-10 nontransformed line. The format is cell-based. Here is the method: as §1, §2
The IC50 for inhibition of proliferation was also determined in the A-10 cell line, a nontransformed line that was used to show the effects of microtubule-stabilizing agents on cellular structures. […]

A further test concerns caspase 3 / PARP. Kind of test: Caspase 3 activation and PARP proteolysis, immunoblot of cell lysates. The note with it: cells treated 42 and 48 hours. The format is cell-based. From the text:
During apoptosis, specific cysteine proteases called the caspases are activated. Activation of the caspase cascade leads to the proteolytic degradation of specific cellular proteins. The activation of caspase 3 and the proteolysis of the DNA repair enzyme PARP, a downstream substrate of caspase 3, were examined in cell lysates from laulimalide-treated cells. Activation of caspase 3 leads to the loss of the 32 kDa proenzyme and the formation of the activation products p17 and p12. […] The loss of the p32 proenzyme is seen at 48 hours. The specific proteolysis of PARP by caspase 3 leads to the formation of two products, an 89 kDa COOH-terminal fragment and a 24 kDa N-terminal fragment. The proteolysis of PARP and the appearance of the 89 kDa degradation product coincided with the activation of caspase 3.

The subject of a further test is MDA-MB-435 cells. Kind of test: Cell cycle distribution by flow cytometry. The format is cell-based, human. The note with it: MDA-MB-435, 20 nM. Here is the method:
FIG. 2 collectively is a graphic representation comparing the effects of Laulimalide on cell cycle distribution, wherein log phase growth cultures of MDA-MB-435 cells were treated, the cells were fixed, stained, and analyzed on a Coulter EPICS XL-MCL flow cytometer and plotted as events versus propidium iodide fluorescene intensity, and in which:
A common characteristic of anti-microtubule agents is their ability to initiate mitotic arrest. […] This is consistent with the effects of other antimicrotubule agents, where disruption of microtubule dynamics prevents normal mitotic progression and leads to mitotic arrest. […] The mitotic cells were rounded, and the spindles formed a circular pattern with spindle microtubules radiating outward from a microtubule-free core in the center of the cell. In the mitotic cells, the nuclear membranes were not apparent, and the chromatin was condensed and aligned in a circular pattern.
The ultimate mechanism of action of many cytotoxic cancer chemotherapeutic agents is the initiation of pathways of gene and protein expression leading to apoptosis. Antimicrotubule drugs including paclitaxel, vinblastine, and cryptophycin 1 initiate apoptosis both in vitro and in vivo. […] The loss of cellular DNA is detected by the appearance of the subdiploid peak when apoptotic cells are analyzed by flow cytometry. […]
Background: In flow cytometry, cells or beads pass a laser one at a time.

Test [4] has as its system SKVLB-1 cell line (P-glycoprotein-overexpressing sub-line of SK-OV-3). Kind of test: Inhibition of cell proliferation, SRB assay, multidrug-resistant SKVLB-1. The format is cell-based, human. Particulars: for IC50: Homo sapiens, read-out: IC50 for inhibition of cell proliferation; for Resistance Factor: drug-resistant SKVLB-1 versus parental SK-OV-3 IC50. Here is the method:
as §1, §2, §3

In test [5] the test system is A-10 cells. Kind of test: Micronuclei formation, DAPI staining. The format is cell-based, rat. The note with it: for effect on nuclear structure: A-10 and SK-OV-3 cells, wide range of concentrations; for cells exhibiting micronuclei: A-10 cells, 0.02-2 μM, 18 hours. Here is the method:
FIG. 1 is a graphic representation comparing the effects of Laulimalide and paclitaxel on micronuclei formation, in which A-10 cells were treated for 18 hours with Laulimalide or paclitaxel, the cells were fixed and nuclei were visualized by DAPI staining;
as §4
The effects of laulimalide on nuclear structure are visible: The normal rounded shape of the nucleus, which is devoid of microtubules, can be detected, whereas in laulimalide-treated cells this distinct microtubule-free area containing the discrete central nucleus was lost and only vesicle-like areas devoid of microtubules remained. […] Similar nuclear changes occurred with isolaulimalide. Paclitaxel also initiated the formation of micronuclei, as has been reported by others.
The difference between the two drugs was statistically significant at all five concentrations tested (P<0.0001).

In another test the test system is bovine brain tubulin. Kind of test: Tubulin polymerization in vitro. The format is biochemical. Particulars: for EC50: Table 2; for effect on tubulin polymerization (in words): absence of polymerization promoters. An excerpt:
FIG. 3 collectively is a graphic representation comparing the effects of Laulimalide and paclitaxel on tubulin polymerization, in which the polymerization of bovine brain tubulin was monitored, and in which:
One characteristic of the microtubule-stabilizing agents paclitaxel, discodermolide, epothilones A and B, and eleutherobin is the ability of these agents to initiate the polymerization of tubulin in the absence of polymerization promoters, such as glycerol. Studies were undertaken to determine the effects of laulimalide on tubulin polymerization.
Samples of the tubulin polymer formed were examined by electron microscopy to determine whether the increase in turbidity measured during the polymerization experiments was due to the formation of microtubule-like polymers or the formation of other structures.

Test [6] concerns MDA-MB-435 human mammary adenocarcinoma cell line. Kind of test: Inhibition of cell proliferation, sulforhodamine B (SRB) assay, MDA-MB-435. The format is cell-based. Particulars: for IC50: Homo sapiens. Here is the method:
as §1, §2, §3

[7] abbreviates: MDA-MB-435, 48 h, read-out: IC50 for inhibition of cell proliferation.

Broadly, the EC50 is the midpoint of the concentration-response curve. Higher therefore signals a less potent agent.

In the case of `C=C1C[C@H](C)C[C@@H]2CC=C[C@@H](C/C=C\C(=O)OC([C@@H](O)/C=C/[C@@H]3CC(C)=CCO3)C[C@@H]3OC3[C@@H](O)C1)O2` (stereo partly drawn) [Laulimalide, laulimalide], in test [1] (SK-OV-3, 48 h), the IC50 was determined as 11.5 ± 0.53 nM. In the test with A-10 cells [2], the “sensitivity of stabilized cellular microtubules to vinblastine” value (“sensitivity” for short) was “resistant to vinblastine-induced depolymerization”, the “effect on mitotic spindles” value is on record as “Abnormal mitotic spindles” and the “morphological effects on cellular microtubules” value (from here on “morphological effects”) is “bundles of short tufts of microtubules”. Besides, the IC50 in test [3] (A10, read-out: IC50 for inhibition of proliferation) was found to be 51000 nM. In the test on caspase 3 / PARP, the “caspase 3 activation and PARP cleavage” value is “Caspase 3 was activated and PARP proteolytically cleaved”. The “subdiploid peak (apoptosis)” value with MDA-MB-435 cells (18 hours) is listed as “doubling of the subdiploid peak”. The “effect on cell cycle” value in the test on MDA-MB-435 cells (within nine hours) is given as “cell cycle arrest in G2-M”. For the same compound, the IC50 in test [4] (SKVLB1, 48 h) was 1210 nM. For the same compound, the “Resistance Factor” value in [4] turned out to be 105. Moreover, in the test with A-10 cells [5], the “effect on nuclear structure” value is listed as “formation of multiple micronuclei” and the cells exhibiting micronuclei result was “approximately 60%”. Further, in the test with bovine brain tubulin, the “polymerization of tubulin at 0° C.” value is “Neither paclitaxel nor laulimalide promoted the polymerization”, the EC50 is 4320 ± 400 nM and the “effect on tubulin polymerization (in words)” value is “stimulated tubulin polymerization”. The “kinetics of tubulin formation relative to 20 μM paclitaxel” value with bovine brain tubulin (20 μM) was “twice as fast”. For the same compound, in the test on bovine brain tubulin (20 μM of each drug), the “additional tubulin polymer formed relative to paclitaxel” value is reported as “approximately 30%”. The “stability of tubulin polymers formed” value with bovine brain tubulin (cold and CaCl2) is “insensitive to cold and CaCl2-induced depolymerization”. The IC50 in [6] (setting [7]) was 5.74 ± 0.58 nM. The IC50 in [6] (MDA-MB-435, read-out: IC50 values, inhibition of cell proliferation (summary of Table 1)) was 5 to 12 nM.
Regarding `CC(=O)O[C@H]1C(=O)[C@@]2(C)[C@H]([C@H](OC(=O)c3ccccc3)[C@]3(O)C[C@H](OC(=O)[C@H](O)[C@@H](NC(=O)c4ccccc4)c4ccccc4)C(C)=C1C3(C)C)[C@]1(OC(C)=O)CO[C@@H]1C[C@@H]2O` [Paclitaxel, reference compound], the IC50 in test [1] (SK-OV-3, 48 hours, SRB, mean ± SD) was 1.71 ± 1.07 nM. For the same compound, in the test on A-10 cells [2], the “sensitivity” value is on record as “resistant to vinblastine-induced depolymerization”; the “effect on mitotic spindles” value is reported as “Abnormal mitotic spindles”; the “morphological effects” value is on record as “formation of a highly organized array of microtubules, some of which formed thick microtubule bundles”. Moreover, the IC50 in [3] (A10, A-10 cell line, read-out: IC50 for inhibition of proliferation) was 40000 nM. Besides, in test [4] (SKVLB1, SKVLB (SKVLB-1), 48 hours, SRB, mean ± SD), the IC50 is over 100000 nM. The “inhibition of the SKVLB-1 cell line” value in test [4] (concentrations up to 100 μM) is at most 70%. For the same compound, the “Resistance Factor” value in [4] is listed as >58,480. The cells exhibiting micronuclei entry in the test on A-10 cells [5] is reported as “approximately 40%”. In addition, in the test on bovine brain tubulin, the “polymerization of tubulin at 0° C.” value was “Neither paclitaxel nor laulimalide promoted the polymerization” and the EC50 came out at 1440 ± 60 nM. Further, the IC50 in test [6] (MDA-MB-435, 48 hours, SRB, mean ± SD, read-out: IC50 for inhibition of cell proliferation) came out at 1.02 ± 0.25 nM.
As for `C=C1C[C@H](C)C[C@@H]2CC=C[C@@H](C/C=C\C(=O)OC3CC(OC3/C=C/[C@@H]3CC(C)=CCO3)[C@@H](O)[C@@H](O)C1)O2` (stereo partly drawn) [Isolaulimalide, isolaulimalide], the IC50 in [1] (SK-OV-3, 48 h) amounted to 2570 nM; in test [4] (SKVLB1, 48 h), 2650 nM; in test [6] (setting [7]), 1970 nM. The “sensitivity” value in the test on A-10 cells [2] is “resistant to vinblastine-induced depolymerization”. In addition, the “effect on mitotic spindles” value in the test on A-10 cells [2] was “Abnormal mitotic spindles”. For the same compound, the “morphological effects” value in the test on A-10 cells [2] is reported as “increase in the density of cellular microtubules, but no microtubule bundles were present”. Also, the “Resistance Factor” value in [4] worked out at 1.03. Besides, the “effect on nuclear structure” value in the test on A-10 cells [5] was “formation of multiple micronuclei”. Besides, the “effect on tubulin polymerization (in words)” value in the test with bovine brain tubulin was “stimulated tubulin polymerization”. In test [6] (cell lines of Table 1), the “IC50 values, inhibition of cell proliferation (in words)” value is given as “low μM range”.
